Test results reported in US20260015360A1 (MOMA Therapeutics, Inc., priority 2023, published 2026).
Like-named read-outs stand apart in the source and are kept apart here.

Experiments:
DLD1 WT cells = assay: DLD1 viability assay (CellTiter-Glo, 7 days), DLD1 WT; assay type: cell-based
Description: (§1) The seeding densities are pre-determined from the growth curve kinetics performed to ensure log linear phase of cell growth for these 2 cell lines. These assay plates are then placed in the incubator at 37° C., 5% CO2, relative humidity>90% for a few hours before addition of test compounds. Compounds are dispensed using the Tecan HPD300 or Echo based on the plate map in the appropriate wells of the 384-well plates. […] After addition of the test compounds, the plates are incubated at 37° C., 5% CO2, relative humidity>90% for 7 days. CellTiter-Glo (Promega Cat. No. G7573), ATP detection reagent is prepared according to manufacturer's specifications. Cell assay plates are removed from incubator and bring to room temperature (RT) by letting them sit at bench top for at least 15 min. Using the MultiDrop liquid handler or a multichannel pipette, 35 μL/well of CTG is added and the plates are then placed shakes for 5 seconds, RT. These plates are then incubated for 30 minutes in the dark at RT before measuring luminescence using Spectramax/Enspire/Ensight/Envision/PheraSTAR.

DLD1 BRCA2 (−/−) cells = assay: DLD1 viability assay (CellTiter-Glo, 7 days), DLD1 BRCA2 (−/−); assay type: cell-based; conditions: read-out: Viability IC50 (μM) DLD1 BRCA2 null
Description: as §1

Row | Structure (SMILES) | IC50 (DLD1 WT cells; Homo sapiens, DLD-1, 168 h) | IC50 (DLD1 BRCA2 (−/−) cells; Homo sapiens, DLD-1, 168 h) | IC50 (DLD1 WT cells) | IC50 (DLD1 BRCA2 (−/−) cells)
1 | COc1cnc(Cl)cc1-c1cc(C)ncc1C(=O)Nc1nc2ncc(N3CCO[C@H](C(F)(F)F)C3)nc2s1 [Example 430, (S)-2′-chloro-5′-methoxy-6-methyl-N-(6-(2-(trifluoromethyl)morpholino)thiazolo[4,5-b]pyrazin-2-yl)-[4,4′-bipyridine]-3-carboxamide] | > 10 µM | 0.001 to 0.1 µM | – | –
2 | COc1cnc(Cl)cc1-c1cc(C)ncc1C(=O)Nc1nc2ncc([C@@H]3CCO[C@@H](C)C3)nc2s1 [Example 433, 2′-chloro-5′-methoxy-6-methyl-N-(6-((2S,4R)-2-methyltetrahydro-2H-pyran-4-yl)thiazolo[4,5-b]pyrazin-2-yl)-[4,4′-bipyridine]-3-carboxamide] | > 10 µM | 0.001 to 0.1 µM | – | –
3 | COc1cnc(Cl)cc1-c1cc(C)ncc1C(=O)Nc1nc2ncc(N3CCC(OC(F)(F)F)CC3)nc2s1 [Example 489, 2′-chloro-5′-methoxy-6-methyl-N-(6-(4-(trifluoromethoxy)piperidin-1-yl)thiazolo[4,5-b]pyrazin-2-yl)-[4,4′-bipyridine]-3-carboxamide] | > 10 µM | 0.001 to 0.1 µM | – | –
4 | COc1cnc(Cl)cc1-c1cc(C)ncc1C(=O)Nc1nc2ncc(N3CCO[C@@H](C(F)(F)F)C3)nc2s1 [Example 440, (R)-2′-chloro-5′-methoxy-6-methyl-N-(6-(2-(trifluoromethyl)morpholino)thiazolo[4,5-b]pyrazin-2-yl)-[4,4′-bipyridine]-3-carboxamide] | > 10 µM | 0.001 to 0.1 µM | – | –
5 | COc1cnc(Cl)cc1-c1cc(C)ncc1C(=O)Nc1nc2ncc(N3CCC(C(C)(C)O)CC3)nc2s1 [Example 480, 2′-chloro-N-(6-(4-(2-hydroxypropan-2-yl)piperidin-1-yl)thiazolo[4,5-b]pyrazin-2-yl)-5′-methoxy-6-methyl-[4,4′-bipyridine]-3-carboxamide] | > 10 µM | 0.001 to 0.1 µM | – | –
6 | COc1cnc(Cl)cc1-c1cc(C)ncc1C(=O)Nc1nc2ncc([C@H]3CCN(CC(F)(F)F)C3)nc2s1 (single isomer, unassigned) [Example 364, (S or R)-2′-chloro-5′-methoxy-6-methyl-N-(6-(1-(2,2,2-trifluoroethyl)pyrrolidin-3-yl)thiazolo[4,5-b]pyrazin-2-yl)-[4,4′-bipyridine]-3-carboxamide] | > 10 µM | 0.1 to 0.25 µM | – | –
7 | COc1cnc(Cl)cc1-c1cc(C)ncc1C(=O)Nc1nc2ncc([C@@H]3CCO[C@H](C)C3)nc2s1 (single isomer, unassigned) [Example 435, 2′-chloro-5′-methoxy-6-methyl-N-(6-((2R or S,4R or S)-2-methyltetrahydro-2H-pyran-4-yl)thiazolo[4,5-b]pyrazin-2-yl)-[4,4′-bipyridine]-3-carboxamide] | > 10 µM | 0.001 to 0.1 µM | – | –
8 | COc1cnc(Cl)cc1-c1cc(C)ncc1C(=O)Nc1nc2ncc(-c3cccc(C(F)F)n3)nc2s1 [Example 446, 2′-chloro-N-(6-(6-(difluoromethyl)pyridin-2-yl)thiazolo[4,5-b]pyrazin-2-yl)-5′-methoxy-6-methyl-[4,4′-bipyridine]-3-carboxamide] | > 10 µM | 0.001 to 0.1 µM | – | –
9 | COc1cnc(Cl)cc1-c1cc(C)ncc1C(=O)Nc1nc2ncc([C@H]3CCO[C@@H](C)C3)nc2s1 (single isomer, unassigned) [Example 434A, 2′-chloro-5′-methoxy-6-methyl-N-(6-((2S or R,4S or R)-2-methyltetrahydro-2H-pyran-4-yl)thiazolo[4,5-b]pyrazin-2-yl)-[4,4′-bipyridine]-3-carboxamide] | > 10 µM | 0.001 to 0.1 µM | – | –
10 | COc1cnc(Cl)cc1-c1cc(C)ncc1C(=O)Nc1nc2ncc(N3CCC(OC4CC4)CC3)nc2s1 [Example 462, 2′-chloro-N-(6-(4-cyclopropoxypiperidin-1-yl)thiazolo[4,5-b]pyrazin-2-yl)-5′-methoxy-6-methyl-[4,4′-bipyridine]-3-carboxamide] | > 10 µM | 0.001 to 0.1 µM | – | –
11 | COc1cnc(Cl)cc1-c1cc(C)ncc1C(=O)Nc1nc2ncc(N3CCN(CC(F)(F)F)CC3)nc2s1 [Example 471, 2′-chloro-5′-methoxy-6-methyl-N-(6-(4-(2,2,2-trifluoroethyl)piperazin-1-yl)thiazolo[4,5-b]pyrazin-2-yl)-[4,4′-bipyridine]-3-carboxamide] | > 10 µM | 0.001 to 0.1 µM | – | –
12 | COc1cnc(Cl)cc1-c1cc(C)ncc1C(=O)Nc1nc2ncc(N3CCC3)nc2s1 [Example 487, N-(6-(azetidin-1-yl)thiazolo[4,5-b]pyrazin-2-yl)-2′-chloro-5′-methoxy-6-methyl-[4,4′-bipyridine]-3-carboxamide] | > 10 µM | 0.001 to 0.1 µM | – | –
13 | COc1cnc(Cl)cc1-c1cc(C)ncc1C(=O)Nc1nc2ncc(C3CCC(OC(F)F)CC3)nc2s1 (centres unmarked) [Example 398, 2′-chloro-N-(6-(4-(difluoromethoxy)cyclohexyl)thiazolo[4,5-b]pyrazin-2-yl)-5′-methoxy-6-methyl-[4,4′-bipyridine]-3-carboxamide] | > 10 µM | 0.001 to 0.1 µM | – | –
14 | COc1cnc(Cl)cc1-c1cc(C)ncc1C(=O)Nc1nc2ncc(N3CCC(C(F)F)CC3)nc2s1 [Example 486, 2′-chloro-N-(6-(4-(difluoromethyl)piperidin-1-yl)thiazolo[4,5-b]pyrazin-2-yl)-5′-methoxy-6-methyl-[4,4′-bipyridine]-3-carboxamide] | > 10 µM | 0.001 to 0.1 µM | – | –
15 | COc1cnc(Cl)cc1-c1cc(C)ncc1C(=O)Nc1nc2ncc(C3CCN(CC(F)(F)F)CC3)nc2s1 [Example 432, 2′-chloro-5′-methoxy-6-methyl-N-(6-(1-(2,2,2-trifluoroethyl)piperidin-4-yl)thiazolo[4,5-b]pyrazin-2-yl)-[4,4′-bipyridine]-3-carboxamide] | > 10 µM | 0.001 to 0.1 µM | – | –
16 | COc1cnc(Cl)cc1-c1cc(C)ncc1C(=O)Nc1nc2ncc(N3CCO[C@H](C)C3)nc2s1 [Example 488, (R)-2′-chloro-5′-methoxy-6-methyl-N-(6-(2-methylmorpholino)thiazolo[4,5-b]pyrazin-2-yl)-[4,4′-bipyridine]-3-carboxamide] | > 10 µM | 0.001 to 0.1 µM | – | –
17 | COc1cnc(Cl)cc1-c1cc(C)ncc1C(=O)Nc1nc2ncc(N3C[C@H](C)OC[C@H]3C)nc2s1 [Example 422, 2′-chloro-N-(6-((2S,5R)-2,5-dimethylmorpholino)thiazolo [4,5-b]pyrazin-2-yl)-5′-methoxy-6-methyl-[4,4′-bipyridine]-3-carboxamide] | > 10 µM | 0.001 to 0.1 µM | – | –
18 | COc1cnc(Cl)cc1-c1cc(C)ncc1C(=O)Nc1nc2ncc(C3CCC(C)(C#N)CC3)nc2s1 (centres unmarked) [Example 410, 2′-chloro-N-(6-(4-cyano-4-methylcyclohexyl)thiazolo[4,5-b]pyrazin-2-yl)-5′-methoxy-6-methyl-[4,4′-bipyridine]-3-carboxamide] | > 10 µM | 0.001 to 0.1 µM | – | –
19 | COc1cnc(Cl)cc1-c1cc(C2CC2)ncc1C(=O)Nc1nc2ncc(-c3ccnc(C)c3)nc2s1 [Example 445, 2′-chloro-6-cyclopropyl-5′-methoxy-N-(6-(2-methylpyridin-4-yl)thiazolo[4,5-b]pyrazin-2-yl)-[4,4′-bipyridine]-3-carboxamide] | > 10 µM | 0.001 to 0.1 µM | – | –
20 | COc1cnc(Cl)cc1-c1cc(C)ncc1C(=O)Nc1nc2ncc(N3CCC(O)C(F)(F)C3)nc2s1 (single isomer, unassigned) [Example 458, (R or S)-2′-chloro-N-(6-(3,3-difluoro-4-hydroxypiperidin-1-yl)thiazolo[4,5-b]pyrazin-2-yl)-5′-methoxy-6-methyl-[4,4′-bipyridine]-3-carboxamide] | – | – | > 10 µM | 0.001 to 0.1 µM
21 | COc1cnc(Cl)cc1-c1cc(C)ncc1C(=O)Nc1nc2ncc(N3CCC(C4COC4)CC3)nc2s1 [Example 464, 2′-chloro-5′-methoxy-6-methyl-N-(6-(4-(oxetan-3-yl)piperidin-1-yl)thiazolo[4,5-b]pyrazin-2-yl)-[4,4′-bipyridine]-3-carboxamide] | > 10 µM | 0.001 to 0.1 µM | – | –
22 | COc1cnc(Cl)cc1-c1cc(C)ncc1C(=O)Nc1nc2ncc(N3CCC(C(C)(C)C#N)CC3)nc2s1 [Example 468, 2′-chloro-N-(6-(4-(2-cyanopropan-2-yl)piperidin-1-yl)thiazolo[4,5-b]pyrazin-2-yl)-5′-methoxy-6-methyl-[4,4′-bipyridine]-3-carboxamide] | 5 to 7.5 µM | 0.001 to 0.1 µM | – | –
23 | COc1ccccc1-c1cc(C)ncc1C(=O)Nc1nc2ccc(N3CCCCC3)cc2s1 [Example 91, 4-(2-Methoxyphenyl)-6-methyl-N-(6-(piperidin-1-yl)benzo[d]thiazol-2-yl)nicotinamide] | 7.5 to 10 µM | 0.5 to 2 µM | – | –
24 | COc1cnc(Cl)cc1-c1cc(C)ncc1C(=O)Nc1nc2ncc(N3CC[C@H](OC)C(F)(F)C3)nc2s1 (single isomer, unassigned) [Example 441, (S or R)-2′-chloro-N-(6-(3,3-difluoro-4-methoxypiperidin-1-yl)thiazolo[4,5-b]pyrazin-2-yl)-5′-methoxy-6-methyl-[4,4′-bipyridine]-3-carboxamide] | 0.001 to 2.5 µM | 0.001 to 0.1 µM | – | –
25 | COc1cnc(Cl)cc1-c1cc(C)ncc1C(=O)Nc1nc2ncc(C3=CCC(O)(C(F)(F)F)CC3)nc2s1 (single isomer, unassigned) [Example 413, 2′-chloro-N-(6-(4-hydroxy-4-(trifluoromethyl)cyclohex-1-en-1-yl)thiazolo[4,5-b]pyrazin-2-yl)-5′-methoxy-6-methyl-[4,4′-bipyridine]-3-carboxamide] | > 10 µM | 0.001 to 0.1 µM | – | –
